pIC50, pKd: −log10 of the molar value. Where two headings read alike, the source gives them in different places.

Data set [1] relates to HCT116 cells (BRCA2 wild-type). Nature of the data set: SRB growth inhibition assay, combination of CAM833 and PARP1 inhibitor AZD2461. Format: cell-based, human. The settings on record: HCT116, fixed dose 0.1 μM or 1 μM, 96 h. On the procedure: (§1) Adherent cell lines (HCT116 and A549 cells) were seeded into flat-bottomed tissue culture 96-well plates in a volume of 150 μL of growth medium. HCT116 cells were seeded at 750 cells per well and A549 cells were seeded at 1000 cells per well. After 24 hours, compounds dissolved in DMSO were diluted in growth medium and were added to cells such that the final DMSO concentration was 1% (v/v) and the final volume in the well was 200 μL. Cells were then incubated in the presence of compound for 96 hours before fixation.
(§2) Medium was removed from cells and 100 μL of cold 1% (v/v) trichloroacetic acid was added for 30 minutes at 4 degrees. The plates were washed three times in tap water and left to dry at room temperature. The fixed cells were stained in a 0.057% sulphorodamine B/1% acetic acid solution (w/v) and incubated at room temperature with agitation for 30 minutes after which the dye was removed and the plates washed in 1% (v/v) acetic acid and left to dry. The dye was then solubilised in 10 mM Tris solution (pH8) and incubated for 30 minutes under agitation. The plates were then read on a PHERAstar plus plate reader (BMG Labtech) using the fluorescence intensity module (540-590 nm). Growth inhibition was calculated relative to DMSO controls and GI50 values were calculated using Graphpad Prism.
For the PARP inhibitor experiments, the SRB method was used as described above to measure growth inhibition with the exception that cells were seeded into 150 μl medium and then a combination of either 25 μl of CAM833, AZD2461 (SelleckChem; #S7029) or DMSO was added to give a total volume of 200 ul in the well.

A further data set concerns HCT116 cells. Description: SRB growth inhibition assay. It counts as cell-based, human. The settings on record: SRB 96 h, Figure 6D (cell line not given). The protocol:
as §1, §2

In data set [2] the target is T1, HumRadA2 (Pyrococcus furiosus, UniProt O74036, D220A/E219S/I169M/K221M/V202Y/Y201A). Description: Isothermal titration calorimetry (ITC) against HumRadA2. Format: binding, Pyrococcus furiosus (humanised RadA). The protocol:
ITC was performed using a Microcal iTC200 instrument at 25°C. Experiments typically involved titrating a 10-fold excess of ligand in the injection syringe against the protein ([HumRadA2] = 60 μM or [ChimRAD51] = 20 μM) in either 200 mM Tris buffer at pH 7.5 and 100 mM NaCl (HumRadA2) or 20 mM potassium phosphate at pH 8.0 and 192 mM KCl (ChimRAD51). Titrations were typically performed with 5-10% DMSO and care was taken to ensure that the DMSO concentrations in the protein and ligand solutions were well matched. The raw ITC data were fitted using a single-site binding model in Microcal ITC LLC data analysis program in the Origin 7.0 package to derive the dissociation constant, stoichiometry and ΔH of binding. […]

A further data set is described as follows: Aqueous solubility. The settings on record: for profiling in cell-based assays.
In data set [3] the target is T1, HumRadA2. The settings on record: ref Scott et al., 2016; read-out: Kd against HumRadA2 by ITC; cited from earlier work.
Data set [4] addresses ChimRAD51. The arrangement: method as in Moschetti et al., 2016. The settings on record: ref Moschetti et al., 2016; read-out: Kd of binding to ChimRAD51 by ITC; cited from earlier work.
In data set [5] the target is ChimRAD51. More on the design: method as in Moschetti et al., 2016. The settings on record: direct binding of BRC4 peptide; ref Moschetti et al., 2016; read-out: Kd of binding to ChimRAD51 by FP; cited from earlier work.
For data set [6], the target named is ChimRAD51 (chimeric RAD51/RadA protein) (Pyrococcus furiosus | human). Nature of the data set: fluorescence polarisation; competition: 10 nM Alexa Fluor 488-labelled BRC4 peptide and 50 nM ChimRAD51 (about 80-90% saturation), increasing concentration of competitor; isotherms fitted with the expression of Wang (1995).

With `COC1CCN(C(=O)c2cc(Cc3n[nH]c(=O)c4ccccc34)ccc2F)CC1` [AZD2461, reference compound], the “growth inhibition by AZD2461 alone (in words)” value in data set [1] is on record as “little effect”.

On to `N.N.O=C([O-])C1(C(=O)[O-])CCC1.[Pt+2]` [Carboplatin, reference compound], for which the pIC50 was 5.00 with HCT116 cells (0 Gy IR), 5.05 with HCT116 cells (1 Gy IR), 4.97 in the data set with HCT116 cells (2 Gy IR) and 4.95 in the data set on HCT116 cells (3 Gy IR).

Regarding `Nc1cc2ccccc2cc1C(=O)O` [Compound 3, 3-amino-2-naphthoic acid], on HumRadA2 [2], the negative-log Kd (pKd) was 2.89.

At HumRadA2 [2], `C[C@H](NC(=O)[C@@H]1CCCN1C(=O)[C@H](Cc1c[nH]cn1)NC(=O)c1cc2ccccc2cc1N)C(N)=O` [Compound 4] showed a pKd of 5.52.

Consider `C[C@H](NC(=O)c1ccc2ccccc2c1)C(=O)N1CCC[C@H]1C(=O)N[C@@H](C)c1ccccc1` [Compound 5, (S)-1-((2-Naphthoyl)-L-alanyl)-N-((S)-1-phenylethyl)pyrrolidine-2-carboxamide], for which the pKd at HumRadA2 [2] was 6.66. Further, the “solubility in aqueous media (in words)” value in “Aqueous solubility” is recorded as “too insoluble”.

On to Ac-FHTA-NH2 [Compound 1], for which the negative logarithm of the Kd (pKd) at HumRadA2 [3] was 3.55.

Turning to “BRC4 peptide: BRC4 repeat peptide of BRCA2 (CKEPTLLGFHTASGKKVKIAKESLDKVKNLFDEKEQ; Alexa Fluor 488 (maleimide dye) on the additional N-terminal cysteine)”, the pKd in the data set with ChimRAD51 [4] is 8.22; with ChimRAD51 [5], 8.40.

In turn, “N-terminal "FxxA" half of the BRC4 repeat (FxxA half-peptide)” had a negative-log Kd (pKd) in data set [6] of 4.44.

Values taken from article PMC8219027, “A small-molecule inhibitor of the BRCA2-RAD51 interaction modulates RAD51 assembly and potentiates DNA damage-induced cell death” (Cell Chemical Biology, 2021).
